From patent US7683176B2, “Triazolyl pyridyl benzenesulfonamides” (ChemoCentryx, Inc., priority 2006, dated 2010) come the findings set out here.

Each structure is given as a SMILES string.

In general, IC50 refers to the concentration at which inhibition is half-maximal.

In the experiment the target is T1, CCR2 (Homo sapiens, UniProt P41597).
T1 construct: chemokine expressing cells (such as THP-1 cells for CCR2 assay or MOLT-4 cells for CCR9 assay); host or cells: THP-1
T1 sequence (P41597 1-360 isoform P41597-2): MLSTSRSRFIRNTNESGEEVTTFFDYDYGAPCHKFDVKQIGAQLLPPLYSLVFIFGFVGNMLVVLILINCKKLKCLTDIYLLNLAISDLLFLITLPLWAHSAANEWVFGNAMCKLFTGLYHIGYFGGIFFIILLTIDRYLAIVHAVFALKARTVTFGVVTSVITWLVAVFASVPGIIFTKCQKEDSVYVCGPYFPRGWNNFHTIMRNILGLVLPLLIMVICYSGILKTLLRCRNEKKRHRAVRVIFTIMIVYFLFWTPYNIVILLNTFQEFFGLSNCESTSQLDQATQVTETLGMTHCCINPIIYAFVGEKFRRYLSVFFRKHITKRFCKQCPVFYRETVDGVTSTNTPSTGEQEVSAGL
Description: CCR2 activity in one of the chemotaxis, binding or calcium mobilization assays. The following applies: binding or calcium mobilization assays (THP-1 cells, MCP-1). The experiment is classed as cell-based. The method, then:
THP-1 cells and MOLT-4 cells were obtained from the American Type Culture Collection (Manassas, Va.) and cultured in RPMI tissue culture medium supplemented with 10% fetal calf serum (FCS) in a humidified 5% CO2 incubator at 37° C. Recombinant human chemokine proteins MCP-1 and TECK were obtained from R&D Systems (Minneapolis, Minn.). ^125I-labeled MCP-1 protein was obtained from Amersham (Piscataway, N.J.). ChemoTX® chemotaxis microchambers were purchased from Neuro Probe (Gaithersburg, Md.). CyQUANT® cell proliferation kits were purchased from Molecular Probes (Eugene, Oreg.). Calcium indicator dye Fluo-4 AM was purchased from Molecular Devices (Mountain View, Calif.).
Conventional migration assay was used to determine the efficacy of potential receptor antagonists in blocking migration mediated through chemokines (such as CCR2 or CCR9). This assay was routinely performed using the ChemoTX® microchamber system with a 5-μm pore-sized polycarbonate membrane. To begin such an assay, chemokine expressing cells (such as THP-1 cells for CCR2 assay or MOLT-4 cells for CCR9 assay) were harvested by centrifugation of cell suspension at 1000 RPM on a GS-6R Beckman centrifuge. The cell pellet was resuspended in chemotaxis buffer (HBSS with 0.1% BSA) at 10×10^6 cells/mL for CCR2 assay (5×10^6 cells/mL for CCR9 assay). Test compounds at desired concentrations were prepared from 10 mM stock solutions by serial dilutions in chemotaxis buffer. An equal volume of cells and compounds were mixed and incubated at room temperature for 15 minutes. Afterwards, 20 μL of the mixture was transferred onto the porous membrane of a migration microchamber, with 29 μL of chemokine ligand (0.1 nM chemokine MCP-1 protein for CCR2 assay or […] chemokine TECK protein for CCR9 assay) placed at the lower chamber. Following an incubation at 37° C. (90-minute for CCR2; 150-minute for CCR9), during which cells migrated […] the chemokine gradient, the assay was terminated by removing the cell drops from atop the filter. To quantify cells migrated across the membrane, 5 μL of 7× CyQUANT® solution was added to each well in the lower chamber, and the fluorescence signal measured on a Spectrafluor Plus fluorescence plate reader (TECAN, Durham, N.C.). The degree of inhibition was determined by comparing migration signals between compound-treated and untreated cells. IC50 calculation was further performed by non-linear squares regression analysis using Graphpad Prism (Graphpad Software, San Diego, Calif.).
Calcium flux assay measures an increase in intracellular calcium following ligand-induced receptor activation. In the screen of chemokine antagonists, it was used as a secondary assay carried out on a FLIPR® machine (Molecular Devices, Mountain View, Calif.). To begin an assay, chemokine expressing cells (such as THP-1 cells for CCR2 assay or MOLT-4 cells for CCR9 assay) were harvested by centrifugation of cell suspension, and resuspended to 1.5×10^6 cells/mL in HBSS (with 1% fetal calf serum). Cells were then labeled with a calcium indicator dye Fluo-4 AM for 45 minutes at 37° C. with gentle shaking. Following incubation, cells were pelletted, washed once with HBSS and resuspended in the same buffer at a density of 1.6×10^6 cells/mL. One hundred microliters of labeled cells were mixed with 10 μL of test compound at the appropriate concentrations on an assay plate. Chemokine protein (MCP-1 at a final concentration of 0.1 nM for CCR2 assay or TECK at a final concentration of 25 nM for CCR9 assay) to activate the receptor. The degree of inhibition was determined by comparing calcium signals between compound-treated and untreated cells. IC50 calculations were further performed by non-linear squares regression analysis using Graphpad Prism (Graphpad Software, San Diego, Calif.).
Ligand binding assay was used to determine the ability of potential CCR2 antagonists to block the interaction between CCR2 and its ligand MCP-1. […]
A general note: Calcium flux is commonly read through the fluorescence of an indicator in the cells.

With `O=S(=O)(Nc1cc(Cl)cnc1-c1nncn1-c1cn[nH]c1)c1ccc(Cl)c(C(F)(F)F)c1`, the IC50 was under 1000 nM. Under `NC(=O)c1nnc(-c2ncc(Cl)cc2NS(=O)(=O)c2ccc(Cl)c(Cl)c2)n1-c1ccon1` stands under 1000 nM. With `Cc1ccccc1-n1cnnc1-c1ncc(Cl)cc1NS(=O)(=O)c1ccc(Cl)c(C(F)(F)F)c1` the figure was under 1000 nM. For the compound `CC(C)n1c(CN(C)C)nnc1-c1ncc(Cl)cc1NS(=O)(=O)c1ccc(Cl)c(C(F)(F)F)c1`, the IC50 was under 1000 nM. Under `CC(CN(C)C)n1cnnc1-c1ncc(Cl)cc1NS(=O)(=O)c1ccc(Cl)c(C(F)(F)F)c1` (stereo not drawn) stands under 1000 nM; under `O=S(=O)(Nc1cc(Br)cnc1-c1nncn1-c1ccon1)c1ccc(Cl)c(C(F)(F)F)c1`, under 1000 nM; under `O=S(=O)(Nc1cc(Cl)cnc1-c1nnc(C2CC2)n1-c1cc[nH]n1)c1ccc(Cl)c(C(F)(F)F)c1`, under 1000 nM. Regarding `Cc1ccc(S(=O)(=O)Nc2cc(Cl)cnc2-c2nnc(C(N)=O)n2-c2ccon2)cc1C(F)(F)F`, the IC50 is under 1000 nM. Regarding `O=S(=O)(Nc1cc(Cl)cnc1-c1nncn1-c1ccon1)c1ccc(Cl)c(Cl)c1`, the IC50 is under 1000 nM. Under `O=S(=O)(Nc1cc(Cl)cnc1-c1nncn1C1CCNC1)c1ccc(Cl)c(C(F)(F)F)c1` (stereo not drawn) stands under 1000 nM; under `Cc1cnc(-c2nnc(C(N)=O)n2-c2ccccc2)c(NS(=O)(=O)c2ccc(Cl)c(C(F)(F)F)c2)c1`, under 1000 nM. For `CC(C)n1c(C(=O)N(C)C)nnc1-c1ncc(Cl)cc1NS(=O)(=O)c1ccc(Cl)c(C(F)(F)F)c1`, the concentration for half-maximal inhibition (IC50) was under 1000 nM. With `Cc1n[nH]cc1-n1cnnc1-c1ncc(Cl)cc1NS(=O)(=O)c1ccc(Cl)c(C(F)(F)F)c1`, the half-maximal inhibitory concentration (IC50) was under 1000 nM.

As for `CN(C)C(=O)c1nnc(-c2ncc(Cl)cc2NS(=O)(=O)c2ccc(Cl)c(C(F)(F)F)c2)n1-c1ccon1`, the IC50 was under 1000 nM. On to `CO[C@H]1CNC[C@@H]1n1cnnc1-c1ncc(Cl)cc1NS(=O)(=O)c1ccc(Cl)c(C(F)(F)F)c1`, for which the IC50 is under 1000 nM. Under `CCOC(=O)c1nnc(-c2ncc(Cl)cc2NS(=O)(=O)c2ccc(Cl)c(C(F)(F)F)c2)n1-c1ccon1` stands under 1000 nM.

Regarding `O=S(=O)(Nc1cc(Cl)cnc1-c1nncn1-c1n[nH]cc1Br)c1ccc(Cl)c(Cl)c1`, the IC50 was under 1000 nM. For `O=S(=O)(Nc1cc(Cl)cnc1-c1nnc(C(F)(F)F)n1-c1ccccc1)c1ccc(Cl)c(C(F)(F)F)c1`, the concentration for half-maximal inhibition (IC50) is under 1000 nM. For the compound `Cc1cnc(-c2nnc(C(N)=O)n2-c2ccon2)c(NS(=O)(=O)c2ccc(Cl)c(C(F)(F)F)c2)c1`, the IC50 is under 1000 nM.

Turning to `CCN(C)C(=O)c1nnc(-c2ncc(Cl)cc2NS(=O)(=O)c2ccc(Cl)c(C(F)(F)F)c2)n1-c1ccon1`, the IC50 is under 1000 nM.

`Cn1nccc1-n1cnnc1-c1ncc(Cl)cc1NS(=O)(=O)c1ccc(Cl)c(C(F)(F)F)c1`: the IC50 was under 1000 nM. On to `O=C(c1nnc(-c2ncc(Cl)cc2NS(=O)(=O)c2ccc(Cl)c(C(F)(F)F)c2)n1-c1ccon1)N1CCOCC1`, for which the IC50 was under 1000 nM.

Turning to `O=S(=O)(Nc1cc(Cl)cnc1-c1nnc(Br)n1-c1n[nH]cc1Br)c1ccc(Cl)c(Cl)c1`, the IC50 is under 1000 nM.

For `COc1ccc(F)cc1-n1cnnc1-c1ncc(Cl)cc1NS(=O)(=O)c1ccc(Cl)c(C(F)(F)F)c1`, the IC50 is under 1000 nM. Take `CC(C)n1c(N)nnc1-c1ncc(Cl)cc1NS(=O)(=O)c1ccc(Cl)c(C(F)(F)F)c1`: the IC50 is under 1000 nM. Take `O=S(=O)(Nc1cc(Cl)cnc1-c1nnc(CO)n1-c1ccon1)c1ccc(Cl)c(C(F)(F)F)c1`: the IC50 was under 1000 nM. Consider `CC(C)n1c(C(N)=O)nnc1-c1ncc(Cl)cc1NS(=O)(=O)c1ccc(Cl)c(C(F)(F)F)c1`, for which the IC50 is under 1000 nM. Regarding `Cc1nnc(-c2ncc(Cl)cc2NS(=O)(=O)c2ccc(Cl)c(C(F)(F)F)c2)n1-c1n[nH]cc1Br`, the IC50 was under 1000 nM. Regarding `CC(C)NC(=O)c1nnc(-c2ncc(Cl)cc2NS(=O)(=O)c2ccc(Cl)c(C(F)(F)F)c2)n1-c1ccon1`, the IC50 was under 1000 nM. Turning to `COCc1nnc(-c2ncc(Cl)cc2NS(=O)(=O)c2ccc(Cl)c(C(F)(F)F)c2)n1-c1ccon1`, the IC50 is under 1000 nM. With `CC(C)c1nnc(-c2ncc(Cl)cc2NS(=O)(=O)c2ccc(Cl)c(C(F)(F)F)c2)n1-c1cc[nH]n1` the figure was under 1000 nM; with `NC(=O)c1nnc(-c2ncc(Cl)cc2NS(=O)(=O)c2ccc(Cl)c(C(F)(F)F)c2)n1-c1ccon1`, under 1000 nM.

Turning to `CC(C)n1c(Cl)nnc1-c1ncc(Cl)cc1NS(=O)(=O)c1ccc(Cl)c(C(F)(F)F)c1`, the IC50 was under 1000 nM.

Consider `CC(C)(C)c1nnc(-c2ncc(Cl)cc2NS(=O)(=O)c2ccc(Cl)c(C(F)(F)F)c2)n1-c1cc[nH]n1`, for which the 50% inhibitory concentration (IC50) is under 1000 nM.

Turning to `CCOC(=O)c1nnc(-c2ncc(Cl)cc2NS(=O)(=O)c2ccc(Cl)c(C(F)(F)F)c2)n1C(C)C`, the IC50 was under 1000 nM. With `O=S(=O)(Nc1cc(Cl)cnc1-c1nncn1C1CCNCC1)c1ccc(Cl)c(C(F)(F)F)c1` the figure was under 1000 nM; with `O=S(=O)(Nc1cc(Br)cnc1-c1nncn1-c1cc[nH]n1)c1ccc(Cl)c(C(F)(F)F)c1`, under 1000 nM; with `CC(C)n1c(Br)nnc1-c1ncc(Cl)cc1NS(=O)(=O)c1ccc(Cl)c(C(F)(F)F)c1`, under 1000 nM. With `COCc1nnc(-c2ncc(Cl)cc2NS(=O)(=O)c2ccc(Cl)c(C(F)(F)F)c2)n1-c1cc[nH]n1` the figure was under 1000 nM; with `O=S(=O)(Nc1cc(Cl)cnc1-c1nncn1-c1n[nH]cc1Br)c1ccc(Cl)c(C(F)(F)F)c1`, under 1000 nM.

In the case of `CC(C)n1c(CO)nnc1-c1ncc(Cl)cc1NS(=O)(=O)c1ccc(Cl)c(C(F)(F)F)c1`, the IC50 is under 1000 nM.

For `CCNC(=O)c1nnc(-c2ncc(Cl)cc2NS(=O)(=O)c2ccc(Cl)c(C(F)(F)F)c2)n1-c1ccon1`, the IC50 was under 1000 nM. Under `O=S(=O)(Nc1cc(Cl)cnc1-c1nnc(C(F)(F)F)n1-c1cc[nH]n1)c1ccc(Cl)c(C(F)(F)F)c1` stands under 1000 nM.

`CCCn1cnnc1-c1ncc(Cl)cc1NS(=O)(=O)c1ccc(Cl)c(C(F)(F)F)c1`: the IC50 is under 1000 nM. With `C[C@@H](CO)n1cnnc1-c1ncc(Cl)cc1NS(=O)(=O)c1ccc(Cl)c(C(F)(F)F)c1` the figure was under 1000 nM.

For the compound `Cc1c[nH]nc1-n1cnnc1-c1ncc(Cl)cc1NS(=O)(=O)c1ccc(Cl)c(C(F)(F)F)c1`, the IC50 was under 1000 nM. With `O=C(c1nnc(-c2ncc(Cl)cc2NS(=O)(=O)c2ccc(Cl)c(C(F)(F)F)c2)n1-c1ccon1)N1CCCC1` the figure was under 1000 nM; with `O=S(=O)(Nc1cc(Cl)cnc1-c1nncn1-c1cc[nH]n1)c1ccc(Cl)c(Cl)c1`, under 1000 nM. Under `Cc1cnc(-c2nncn2-c2cc[nH]n2)c(NS(=O)(=O)c2ccc(Cl)c(C(F)(F)F)c2)c1` stands under 1000 nM. Under `CC(CCO)n1cnnc1-c1ncc(Cl)cc1NS(=O)(=O)c1ccc(Cl)c(C(F)(F)F)c1` (stereo not drawn) stands under 1000 nM. Turning to `O=S(=O)(Nc1cc(Cl)cnc1-c1nnc(Br)n1-c1ccon1)c1ccc(Cl)c(C(F)(F)F)c1`, the IC50 is under 1000 nM.
